Assay results published in the NIST ThermoML archive (doi:10.1021/acs.jced.8b00725).
± gives the expanded uncertainty stated by the source.

Conditions: 100 kPa, Liquid, Vibrating tube method

| Compound | mass density (293.15 K) [kg/m3] | mass density (298.15 K) [kg/m3] | mass density (303.15 K) [kg/m3] | mass density (308.15 K) [kg/m3] | mass density (313.15 K) [kg/m3] | mass density (318.15 K) [kg/m3] | mass density (323.15 K) [kg/m3] | mass density (328.15 K) [kg/m3] | mass density (333.15 K) [kg/m3] | mass density (338.15 K) [kg/m3] | mass density (343.15 K) [kg/m3] | mass density (348.15 K) [kg/m3] | mass density (353.15 K) [kg/m3] |
| --- | --- | --- | --- | --- | --- | --- | --- | --- | --- | --- | --- | --- | --- |
| CC[NH2+]CC.O=S(=O)([O-])O [diethylammonium hydrogen sulfate] | 1382.76 ± 13 | 1379.53 ± 13 | 1376.33 ± 13 | 1373.15 ± 13 | 1369.99 ± 13 | 1366.85 ± 13 | 1363.73 ± 13 | 1360.62 ± 13 | 1357.53 ± 13 | 1354.45 ± 13 | 1351.38 ± 13 | 1348.31 ± 13 | 1345.25 ± 13 |
| O=S(=O)(O)O.OCCN(CCO)CCO [triethanolammonium hydrogen sulfate] | – | – | – | – | – | – | 1421.3 ± 14 | 1418.8 ± 14 | 1416.33 ± 14 | 1413.85 ± 14 | 1411.31 ± 14 | 1408.87 ± 14 | 1406.37 ± 14 |
| CC[NH+](CC)CC.O=C([O-])c1ccccc1 [triethylammonium benzoate] | 1101.47 ± 8.5 | 1098.02 ± 8.4 | 1094.65 ± 8.4 | 1091.27 ± 8.3 | 1087.87 ± 8.3 | 1084.47 ± 8.2 | 1081.07 ± 8.2 | 1077.68 ± 8.1 | 1074.3 ± 8.1 | 1070.92 ± 8 | 1067.55 ± 8 | 1064.18 ± 7.9 | 1060.82 ± 7.9 |
| CC[NH+](CC)CC.CS(=O)(=O)[O-] [triethylammonium methanesulfonate] | 1120.47 ± 8.8 | 1117.11 ± 8.7 | 1113.77 ± 8.7 | 1110.44 ± 8.6 | 1107.13 ± 8.6 | 1103.83 ± 8.5 | 1100.54 ± 8.5 | 1097.26 ± 8.4 | 1093.99 ± 8.4 | 1090.72 ± 8.3 | 1087.47 ± 8.3 | 1084.22 ± 8.2 | 1080.98 ± 8.2 |
| CC(=O)O.CCN(CC)CC [triethylammonium acetate] | 1013.29 ± 7.2 | 1009.63 ± 7.1 | 1005.87 ± 7 | 1002.1 ± 7 | 998.33 ± 6.9 | 994.55 ± 6.9 | 990.75 ± 6.8 | 986.96 ± 6.8 | 983.14 ± 6.7 | 979.32 ± 6.7 | 975.48 ± 6.6 | 971.62 ± 6.6 | 967.74 ± 6.5 |
| CCC(=O)[O-].OCC[NH+](CCO)CCO [triethanolammonium propanoate] | 1139.53 ± 7 | 1136.51 ± 7 | 1133.47 ± 7 | 1130.43 ± 6.9 | 1127.31 ± 6.9 | 1124.25 ± 6.9 | 1121.15 ± 6.8 | 1118.01 ± 6.8 | 1114.84 ± 6.7 | 1111.68 ± 6.7 | 1108.5 ± 6.7 | 1105.29 ± 6.6 | 1102.06 ± 6.6 |
| CC[NH+](CC)CC.O=C([O-])C(F)(F)F [triethylammonium trifluoroacetate] | 1165.69 ± 9.5 | 1161.57 ± 9.5 | 1157.44 ± 9.4 | 1153.32 ± 9.3 | 1149.21 ± 9.3 | 1145.1 ± 9.2 | 1141 ± 9.1 | 1136.91 ± 9.1 | 1132.82 ± 9 | 1128.74 ± 8.9 | 1124.67 ± 8.9 | 1120.6 ± 8.8 | 1116.54 ± 8.7 |
| CC[NH+](C)C.O=C([O-])C(F)(F)F [N,N-dimethyl-N-ethylammonium trifluoroacetate] | 1212.41 ± 10 | 1208.11 ± 10 | 1203.82 ± 10 | 1199.56 ± 10 | 1195.28 ± 10 | 1191.03 ± 10 | 1186.78 ± 9.9 | 1182.54 ± 9.8 | 1178.33 ± 9.8 | 1174.09 ± 9.7 | 1169.9 ± 9.6 | 1165.69 ± 9.5 | 1161.51 ± 9.5 |
| CC[NH+](CC)CC.O=S(=O)([O-])C(F)(F)F [triethylammonium trifluoromethanesulfonate] | 1268.63 ± 11 | 1264.56 ± 11 | 1260.51 ± 11 | 1256.47 ± 11 | 1252.45 ± 11 | 1248.45 ± 11 | 1244.46 ± 11 | 1240.48 ± 11 | 1236.53 ± 11 | 1232.58 ± 11 | 1228.65 ± 11 | 1224.73 ± 11 | 1220.84 ± 10 |
| O=C(O)c1ccccc1O.OCCN(CCO)CCO [triethanolammonium salicylate] | – | – | – | – | – | – | – | 1248.43 ± 11 | 1245.42 ± 11 | 1242.4 ± 11 | 1239.42 ± 11 | 1236.44 ± 11 | 1233.42 ± 11 |
| CC[NH2+]CC.CS(=O)(=O)[O-] [diethylammonium methanesulfonate] | – | – | – | – | – | – | – | – | 1117.5 ± 8.8 | 1114.27 ± 8.7 | 1111.06 ± 8.7 | 1107.86 ± 8.6 | 1104.68 ± 8.5 |
| CCN(CC)CC.O=C(O)c1ccccc1O [triethylammonium salicylate] | 1099.07 ± 8.5 | 1095.79 ± 8.4 | 1092.57 ± 8.3 | 1089.33 ± 8.3 | 1086.08 ± 8.2 | 1082.83 ± 8.2 | 1079.58 ± 8.2 | 1076.35 ± 8.1 | 1073.13 ± 8.1 | 1069.93 ± 8 | 1066.73 ± 8 | 1063.54 ± 7.9 | 1060.36 ± 7.9 |
| CC[NH2+]CC.O=C([O-])C(F)(F)F [diethylammonium trifluoroacetate] | – | – | – | – | – | – | 1158.82 ± 9.4 | 1154.74 ± 9.3 | 1150.69 ± 9.3 | 1146.65 ± 9.2 | 1142.62 ± 9.2 | 1138.55 ± 9.1 | 1134.5 ± 9 |
| CCN(CC)CC.O=P(O)(O)O [triethylammonium dihydrogen phosphate] | – | – | – | – | – | – | – | – | – | 1329.48 ± 12 | 1327.08 ± 12 | 1324.69 ± 12 | 1322.31 ± 12 |
